The first experiment has as its system HBV replication in HepG2.2.15 cells. The experiment can be described thus: HBV replication inhibition assay (BDNA assay). The class given is cell-based. As to conditions: Hepatitis B virus, 144 h; HepG2.2.15 cells, 10 μM, 6 days, encapsidated HBV DNA in supernatant; read-out: Activity in BDNA-assay (activity at 10 μM). From the text: HBV replication inhibition by the compounds of this invention could be determined in cells infected or transfected with HBV, or cells with stably integrated HBV, such as HepG2.2.15 cells (Sells et al. 1987). In this example, HepG2.2.15 cells were maintained in cell culture medium containing 10% fetal bovine serum (FBS), Geneticin, L-glutamine, penicillin and streptomycin. HepG2.2.15 cells could be seeded in 96-well plates at a density of 40,000 cells/well and be treated with serially diluted compounds at a final DMSO concentration of 0.5% either alone or in combination by adding drugs in a checker box format. Cells were incubated with compounds for three days, after which medium was removed and fresh medium containing compounds was added to cells and incubated for another three days. At day 6, supernatant was removed and treated with DNase at 37° C. for 60 minutes, followed by enzyme inactivation at 75° C. for 15 minutes. Encapsidated HBV DNA was released from the virions and covalently linked HBV polymerase by incubating in lysis buffer (Affymetrix QS0010) containing […] proteinase K at 50° C. for 40 minutes. HBV DNA was denatured by addition of 0.2 M NaOH and detected using a branched DNA (BDNA) QuantiGene assay kit according to manufacturer recommendation (Affymetrix). HBV DNA levels could also be quantified using qPCR, based on amplification of encapsidated HBV DNA extraction with QuickExtraction Solution (Epicentre Biotechnologies) and amplification of HBV DNA using HBV specific PCR probes that can hybridize to HBV DNA and a fluorescently labeled probe for quantitation. In addition, cell viability of HepG2.2.15 cells incubated with test compounds alone or in combination was determined by using CellTitre-Glo reagent according to the manufacturer protocol (Promega). The mean background signal from wells containing only culture medium was subtracted from all other samples, and percent inhibition at each compound concentration was calculated by normalizing to signals from HepG2.2.15 cells treated with 0.5% DMSO using equation E1. % inhibition=(DMSOave−Xi)/DMSOave×100% E1: • where DMSOave is the mean signal calculated from the wells that were treated with DMSO control (0% inhibition control) and Xi is the signal measured from the individual wells. EC50 values, effective concentrations that achieved 50% inhibitory effect, were determined by non-linear fitting using Graphpad Prism software (San Diego, Calif.) and equation E2 Y=Ymin+(Ymax−Ymin)/(1+10(Log EC50−X)×HillSlope) E2: • where Y represents percent inhibition values and X represents the logarithm of compound concentrations.
Selected compounds of the invention were assayed in the HBV replication assay (BDNA assay), as described above and a representative group of these active compounds is shown in Table 3.
As for `N#Cc1ccc(Cl)cc1NC(=O)N1CCc2[nH]nc(-c3ccccc3)c2C1` [Compound 201], the inhibition at 10 µM was more than 50%. `O=C(Nc1ccc(Br)c(Cl)c1)N1CCc2[nH]nc(-c3ccccc3)c2C1` [Compound 204]: the inhibition at 10 µM is more than 50%. For `O=C(Nc1cc(Cl)ccc1F)N1CCc2[nH]nc(-c3ccccc3)c2C1` [Compound 214], the inhibition at 10 µM was more than 50%.

`O=C(Nc1cnc(Cl)c(Cl)c1)N1CCc2[nH]nc(-c3ccccc3)c2C1` [Compound 226]: the inhibition at 10 µM was more than 50%. On the same count and under the same terms, with `O=C(Nc1cccc(Cl)c1)N1CCc2[nH]nc(-c3cccc(F)c3)c2C1` [Compound 277, N-(3-chlorophenyl)-3-(3-fluorophenyl)-1,4,6,7-tetrahydropyrazolo[4,3-c]pyridine-5-carboxamide] the figure was more than 50%; with `Cc1ccc(-c2n[nH]c3c2CN(C(=O)Nc2cccc(Cl)c2)CC3)cc1` [Compound 281, N-(3-chlorophenyl)-3-(p-tolyl)-1,4,6,7-tetrahydropyrazolo[4,3-c]pyridine-5-carboxamide], more than 50%.

The same experiment, now with this note: Hepatitis B virus, HepG2.2.15, 144 h, HepG2.2.15 cells, 6 days, encapsidated HBV DNA in supernatant; read-out: Activity in BDNA-assay (EC50).
For `O=C(Nc1cccc(Cl)c1Cl)N1CCc2[nH]nc(-c3ccccc3)c2C1` [Compound 190], the EC50 fell in the range of 500 to 1000 nM. Take `O=C(Nc1cc(Cl)ccc1Cl)N1CCc2[nH]nc(-c3ccccc3)c2C1` [Compound 191]: the EC50 is 500 to 1000 nM.

With `Cc1c(Cl)cccc1NC(=O)N1CCc2[nH]nc(-c3ccccc3)c2C1` [Compound 192], the EC50 was 100 to 500 nM. `O=C(Nc1ccc(F)c(Cl)c1F)N1CCc2[nH]nc(-c3ccccc3)c2C1` [Compound 205]: the half-maximal effective concentration (EC50) lay in the range of 100 to 500 nM. For `O=C(Nc1cccc(Cl)c1)N1CCc2[nH]nc(-c3ccccc3F)c2C1` [Compound 276, N-(3-chlorophenyl)-3-(2-fluorophenyl)-1,4,6,7-tetrahydropyrazolo[4,3-c]pyridine-5-carboxamide], the EC50 lay in the range of 100 to 500 nM.

Turning to `O=C(Nc1cccc(Cl)c1)N1CCc2[nH]nc(-c3ccc(F)cc3)c2C1` [Compound 278, N-(3-chlorophenyl)-3-(4-fluorophenyl)-1,4,6,7-tetrahydropyrazolo[4,3-c]pyridine-5-carboxamide], the EC50 lay in the range of 100 to 500 nM. Consider `Cc1ccccc1-c1n[nH]c2c1CN(C(=O)Nc1cccc(Cl)c1)CC2` [Compound 279, N-(3-chlorophenyl)-3-(o-tolyl)-1,4,6,7-tetrahydropyrazolo[4,3-c]pyridine-5-carboxamide], for which the EC50 is 100 to 500 nM.

With `Cc1cccc(-c2n[nH]c3c2CN(C(=O)Nc2cccc(Cl)c2)CC3)c1` [Compound 280, N-(3-chlorophenyl)-3-(m-tolyl)-1,4,6,7-tetrahydropyrazolo[4,3-c]pyridine-5-carboxamide], the EC50 is 100 to 500 nM. The same measure, in the same setting: with `O=C(Nc1cccc(Cl)c1)N1CCc2[nH]nc(-c3cccnc3)c2C1` [Compound 286, N-(3-chlorophenyl)-3-(3-pyridyl)-1,4,6,7-tetrahydropyrazolo[4,3-c]pyridine-5-carboxamide] the figure was 500 to 1000 nM; with `O=C(Nc1cccc(Cl)c1)N1CCc2[nH]nc(-c3ccncc3)c2C1` [Compound 287], 100 to 500 nM; with `O=C(Nc1cccc(Cl)c1)N1CCc2[nH]nc(-c3ncccn3)c2C1` [Compound 289, N-(3-chlorophenyl)-3-pyrimidin-2-yl-1,4,6,7-tetrahydropyrazolo[4,3-c]pyridine-5-carboxamide], 10 to 100 nM. Consider `O=C(Nc1cccc(Cl)c1)N1CCc2[nH]nc(-c3cccnn3)c2C1` [Compound 290], for which the EC50 was 10 to 100 nM.

As for `O=C(Nc1cccc(Cl)c1)N1CCc2[nH]nc(-c3cncnc3)c2C1` [Compound 291, N-(3-chlorophenyl)-3-pyrimidin-5-yl-1,4,6,7-tetrahydropyrazolo[4,3-c]pyridine-5-carboxamide], the EC50 fell in the range of 100 to 500 nM. With `COc1cccc(-c2n[nH]c3c2CN(C(=O)Nc2cccc(Cl)c2)CC3)c1` [Compound 326, N-(3-chlorophenyl)-3-(3-methoxyphenyl)-1,4,6,7-tetrahydropyrazolo[4,3-c]pyridine-5-carboxamide], the EC50 lay within 100 to 500 nM. Regarding `COc1ccccc1-c1n[nH]c2c1CN(C(=O)Nc1cccc(Cl)c1)CC2` [Compound 327, N-(3-chlorophenyl)-3-(2-methoxyphenyl)-1,4,6,7-tetrahydropyrazolo[4,3-c]pyridine-5-carboxamide], the EC50 lay in the range of 100 to 500 nM. As to `CC1CCCC(NC(=O)N2CCc3[nH]nc(-c4ccccc4)c3C2)C1` (centres unmarked) [Compound 436], the EC50 lay within 500 to 1000 nM. For `O=C(Nc1cccc(Cl)c1)N1CCc2[nH]nc(-c3cccnc3F)c2C1` [Compound 472, N-(3-chlorophenyl)-3-(2-fluoro-3-pyridyl)-1,4,6,7-tetrahydropyrazolo[4,3-c]pyridine-5-carboxamide], the EC50 fell in the range of 100 to 500 nM. Still for that read-out and setting: with `O=C(Nc1cccc(Cl)c1)N1CCc2[nH]nc(-c3ccc(F)nc3)c2C1` [Compound 473, N-(3-chlorophenyl)-3-(6-fluoro-3-pyridyl)-1,4,6,7-tetrahydropyrazolo[4,3-c]pyridine-5-carboxamide] the figure was 500 to 1000 nM. In the case of `Cn1cc(-c2n[nH]c3c2CN(C(=O)Nc2cccc(Cl)c2)CC3)cn1` [Compound 495, N-(3-chlorophenyl)-3-(1-methylpyrazol-4-yl)-1,4,6,7-tetrahydropyrazolo[4,3-c]pyridine-5-carboxamide], the EC50 lay within 1000 to 1500 nM.

As to `Cn1nccc1-c1n[nH]c2c1CN(C(=O)Nc1cccc(Cl)c1)CC2` [Compound 496], the EC50 fell in the range of 100 to 500 nM. Take `O=C(Nc1cccc(Cl)c1)N1CCc2[nH]nc(-c3ccn[nH]3)c2C1` [Compound 497]: the concentration giving a half-maximal response (EC50) fell in the range of 100 to 500 nM. As for `O=C(Nc1cccc(Cl)c1)N1CCc2ncn(-c3ccccc3)c2C1` [Compound 542, N-(3-chlorophenyl)-3-phenyl-6,7-dihydro-4H-imidazo[4,5-c]pyridine-5-carboxamide], the EC50 lay in the range of 500 to 1000 nM. The same measure, in the same setting: with `Cn1ccc(-c2n[nH]c3c2CN(C(=O)Nc2cccc(Cl)c2)CC3)n1` [Compound 555] the figure was 100 to 500 nM; with `O=C(Nc1cccc(C2CC2)c1)N1CCc2[nH]nc(-c3ccccc3)c2C1` [Compound 556], 100 to 500 nM.

On to `N#Cc1cccc(NC(=O)N2CCc3[nH]nc(-c4ccccc4)c3C2)c1F` [Compound 559], for which the EC50 fell in the range of 10 to 100 nM. In the case of `N#Cc1cc(NC(=O)N2CCc3[nH]nc(-c4ccccc4)c3C2)ccc1F` [Compound 560], the EC50 fell in the range of 10 to 100 nM. Turning to `O=C(Nc1cccc(Cl)c1)N1CCc2[nH]nc(-c3ccsc3)c2C1` [Compound 562, N-(3-chlorophenyl)-3-(3-thienyl)-1,4,6,7-tetrahydropyrazolo[4,3-c]pyridine-5-carboxamide], the EC50 is 10 to 100 nM. For the compound `O=C(Nc1cccc(Cl)c1)N1CCc2c(ncn2-c2ccccc2)C1` [Compound 583, N-(3-chlorophenyl)-1-phenyl-6,7-dihydro-4H-imidazo[4,5-c]pyridine-5-carboxamide], the EC50 was 1500 to 5000 nM.

The same experiment, now with this note: Hepatitis B virus, HepG2.2.15, 144 h, read-out: Activity in BDNA-assay (activity at 10 μM).
Consider `COc1ccc(-c2n[nH]c3c2CN(C(=O)Nc2cccc(Cl)c2)CC3)cc1` [Compound 325, N-(3-chlorophenyl)-3-(4-methoxyphenyl)-1,4,6,7-tetrahydropyrazolo[4,3-c]pyridine-5-carboxamide], for which the inhibition at 10 µM is more than 50%.

By EC50 is commonly meant the concentration needed to bring the measured effect to its halfway point.

Source of the values: patent US10077264B2, “Derivatives and methods of treating hepatitis B infections” (Novira Therapeutics, Inc., priority 2014, dated 2018).
